The results in this text go back to ChEMBL document CHEMBL4739717, “Methods of treating cartilage disorders through inhibition of clk and dyrk” (2020).

Assay [1] is described as follows: Effect on Wnt signaling pathway in human SW480 cells harbouring TCF/LEF luciferase reporter gene and SP5-Luc reporter gene incubated for 36 to 48 hrs by luminescence assay. The class given is cell-based.
Assay [2] deals with Dual specificity tyrosine-phosphorylation-regulated kinase 1A (Homo sapiens, UniProt Q13627). The experiment in a line: Inhibition of recombinant DYRK1A (unknown origin) using Ser/Thr 18 peptide as substrate incubated for 1 hr in presence of ATP by FRET assay.
Assay [3] is described as follows: Induction of chondrogenesis in human MSC assessed as maximum activity at 100 nM incubated for 6 days by rhodamine B and Nile red staining based imaging analysis relative to control. The class given is functional. Conditions: BMMSC, 144 h, time 6 day.
Assay [4] can be described thus: Induction of chondrogenesis in human MSC assessed as maximum activity at 30 nM incubated for 6 days by rhodamine B and Nile red staining based imaging analysis relative to control. The class given is functional. As to conditions: BMMSC, 144 h, time 6 day.
Assay [5] can be described thus: Inhibition of IL1-beta induced MMP3 expression levels in human chondrocytes assessed as MMP3 levels incubated for 2hrs followed by IL1-beta stimulation and measured after overnight incubation by LANCE assay. As to conditions: Chondrocyte. The class given is functional, cell-based. Background: Time-resolved FRET reads energy transfer from a long-lived donor to a nearby acceptor.

Assay [6] can be described thus: Induction of chondrogenesis in human MSC assessed as incubated for 6 days by rhodamine B and Nile red staining based imaging analysis. The class given is functional. As to conditions: bmmsc.

Structures are written as SMILES.

For the compound `Fc1cccc(-c2cncc3[nH]c(-c4n[nH]c5ncc(-c6cccnc6)cc45)cc23)c1`, the results for the EC50 in assay [1] and in assay [2] were 572 nM and 57 nM, respectively. Moreover, the Emax – broadly, the greatest response seen or fitted, relative to the assay's reference – at 0.1 µM in assay [3] came out at 35.6%.

For `CC(C)C(=O)Nc1cncc(-c2ccc3[nH]nc(-c4cc5c(-c6cccnc6)cncc5[nH]4)c3c2)c1`, the 50% effective concentration (EC50) (commonly the concentration giving half of the maximal effect) in assay [1] is 260 nM; in assay [2] it was 6 nM. In assay [3], the Emax at 0.1 µM is 34.5%.

Regarding `Fc1cccc(-c2nccc3[nH]c(-c4n[nH]c5ccc(-c6cncc(CN7CCCCC7)c6)nc45)cc23)c1`, the results for the EC50 in assay [1] and in assay [2] were 3750 nM and 71 nM, respectively. Besides, the Emax at 0.1 µM in assay [3] came to 48%.

`CC(C)Nc1cncc(-c2ccc3[nH]nc(-c4cc5c(-c6cccnc6)ccnc5[nH]4)c3n2)c1`: the EC50 in assay [1] was found to be 255 nM; in assay [2] it was 25 nM. For the same compound, in assay [3], the Emax at 0.1 µM turned out to be 47.2%.

For `O=C(Nc1cncc(-c2cnc3[nH]nc(-c4cc5cccnc5[nH]4)c3c2)c1)C1CCCCC1`, the EC50 in assay [1] was 1260 nM; in assay [2], 11 nM. Moreover, in assay [3], the Emax at 0.1 µM turned out to be 28.5%.

For the compound `CCC(=O)Nc1cncc(-c2ccc3[nH]nc(-c4cc5c(-c6cc(F)cc(CNS(C)(=O)=O)c6)cncc5[nH]4)c3c2)c1`, the EC50 came out at 244 nM in assay [1] and 22 nM in assay [2]. Besides, in assay [3], the Emax at 0.1 µM turned out to be 29.4%.

For `O=C(Nc1cncc(-c2cnc3[nH]nc(-c4cc5c(-c6ccncc6)cncc5[nH]4)c3c2)c1)C1CCC1`, the Emax at 0.03 µM in assay [4] was found to be 43.5%. Besides, the figures for the EC50 in assay [1], in assay [2] and in assay [5] were more than 10000 nM, 4 nM and 17.9 nM, respectively.

Take `c1cnc2[nH]c(-c3n[nH]c4ccc(-c5cncc(OCCN6CCCC6)c5)cc34)cc2c1`: the EC50 in assay [1] turned out to be 3300 nM; in assay [2] it was 10 nM. For the same compound, the Emax at 0.1 µM in assay [3] worked out at 42.7%.

As to `CN1CCN(c2cncc3[nH]c(-c4n[nH]c5ccc(-c6cncc(CNCc7ccccc7)c6)cc45)cc23)CC1`, the Emax at 0.03 µM in assay [4] came to 101%. Moreover, the EC50 in assay [1] was 3290 nM; in assay [2], 7 nM; in assay [6] it was 30 nM; in assay [5], 329 nM.

In the case of `Cn1ncc(-c2ccc3cnc(NC(=O)c4cccc(CN5CCCC5)c4)cc3c2)c1CN1CCCCC1`, the Emax at 0.03 µM in assay [4] is 27.6%. The EC50 in assay [5] was found to be 1190 nM.

Consider `O=C(CC1CCNCC1)Nc1cncc(-c2ccc3[nH]nc(-c4cc5c(N6CCCCC6)nccc5[nH]4)c3n2)c1`, for which the Emax at 0.03 µM in assay [4] is 21.8%. Besides, the EC50 in assay [1] was more than 10000 nM; in assay [2] it was 6 nM; in assay [5], 1470 nM.

For `CN(C)Cc1cncc(-c2cnc3[nH]nc(-c4nc5c(-c6cccs6)cncc5[nH]4)c3c2)c1`, the Emax at 0.03 µM in assay [4] stood at 146%. For the same compound, the EC50 came to 48 nM in assay [1], 9 nM in assay [2], 30 nM in assay [6] and 3000 nM in assay [5].

In the case of `Cc1nnc(-c2ccc3cnc(NC(=O)c4ccnc(N(C)C5CCN(C)CC5)c4)cc3c2)s1`, in assay [4], the Emax at 0.03 µM was found to be 25.7%. Besides, the concentration for a half-maximal effect (EC50) in assay [5] was 2.7 nM.

Take `CS(=O)(=O)NCc1cc(F)cc(-c2nccc3[nH]c(-c4n[nH]c5ccc(-c6cncnc6)cc45)nc23)c1`: the Emax at 0.03 µM in assay [4] amounted to 73.1%. Besides, the EC50 amounted to 40.5 nM in assay [1], 96 nM in assay [2] and 30 nM in assay [6].

Regarding `CN(C)Cc1cncc(-c2ccc3[nH]nc(-c4cc5cnccc5[nH]4)c3n2)c1`, the Emax at 0.03 µM in assay [4] was found to be 119%. Also, the EC50 amounted to 1140 nM in assay [1], 13 nM in assay [2] and 30 nM in assay [6].

For `CCNCc1cncc(-c2cc3c(-c4cc5c(-c6ccccc6F)ccnc5[nH]4)n[nH]c3cn2)c1`, the Emax at 0.03 µM in assay [4] is 270%. Also, the EC50 in assay [1] was more than 10000 nM; in assay [2], 70 nM; in assay [6], 30 nM.

Take `CC(C)Nc1cncc(-c2cnc3[nH]nc(-c4nc5c(-c6ccoc6)nccc5[nH]4)c3c2)c1`: in assay [4], the Emax at 0.03 µM turned out to be 72%. Also, the results for the EC50 in assay [1], in assay [2] and in assay [6] were 52.6 nM, 19 nM and 30 nM, respectively.

As to `CN1CCN(c2nccc3[nH]c(-c4n[nH]c5cc(F)c(-c6cnn(C)c6)cc45)nc23)CC1`, in assay [4], the Emax at 0.03 µM was determined as 113%. For the same compound, the EC50 amounted to 85.7 nM in assay [1], 4 nM in assay [2] and 35.5 nM in assay [5].

Regarding `O=C(Cc1ccccc1)Nc1cncc(-c2ccc3[nH]nc(-c4nc5c(-c6ccoc6)cncc5[nH]4)c3c2)c1`, the Emax at 0.03 µM in assay [4] worked out at 102%. Further, the EC50 in assay [1] came out at 33 nM; in assay [2], 17 nM; in assay [6], 30 nM.

With `CCCCC(=O)Nc1cncc(-c2ccc3[nH]nc(-c4cc5c(N6CCCCC6)nccc5[nH]4)c3n2)c1`, the Emax at 0.03 µM in assay [4] turned out to be 54.7%. Also, the figures for the EC50 in assay [1], in assay [2] and in assay [6] were 4050 nM, 43 nM and 30 nM, respectively.

In the case of `CC(C)C(=O)Nc1cncc(-c2ccc3[nH]nc(-c4nc5c(-c6ccccc6F)cncc5[nH]4)c3c2)c1`, the Emax at 0.03 µM in assay [4] worked out at 102%. The EC50 is 4 nM in assay [1], 10 nM in assay [2], 30 nM in assay [6] and 3000 nM in assay [5].

Take `CN1CCN(c2nccc3[nH]c(-c4n[nH]c5cnc(-c6cncc(NC(=O)C(C)(C)C)c6)cc45)cc23)CC1`: the Emax at 0.03 µM in assay [4] amounted to 88.2%. In addition, the results for the EC50 in assay [1], in assay [2] and in assay [6] were 1880 nM, 3 nM and 10 nM, respectively.

With `CC(C)Nc1cncc(-c2ccc3[nH]nc(-c4nc5c(-c6ccoc6)nccc5[nH]4)c3n2)c1`, the Emax at 0.03 µM in assay [4] came to 76.2%. The EC50 in assay [1] amounted to 297 nM; in assay [2] it was 18 nM; in assay [6], 30 nM.

Consider `CC(C)Nc1cncc(-c2ccc3[nH]nc(-c4nc5c(-c6cc(F)cc(NCCN(C)C)c6)nccc5[nH]4)c3c2)c1`, for which the Emax at 0.03 µM in assay [4] came out at 85.1%. Further, the values for the EC50 in assay [1], in assay [2] and in assay [6] were 202 nM, 11 nM and 30 nM, respectively.

Take `Fc1cccc(-c2cncc3[nH]c(-c4n[nH]c5ccc(-c6cncc(CN7CCC(F)(F)C7)c6)cc45)nc23)c1`: the Emax at 0.03 µM in assay [4] was determined as 102%. Further, the EC50 came to 26.4 nM in assay [1], 28 nM in assay [2] and 30 nM in assay [6].

As to `COc1cccc(-c2ccnc3[nH]c(-c4n[nH]c5ccc(-c6cccnc6)nc45)nc23)c1`, the maximal effect (Emax) at 0.03 µM in assay [4] was determined as 50.5%. The concentration for a half-maximal effect (EC50) was found to be 1610 nM in assay [1], 36 nM in assay [2] and 100 nM in assay [6].

`CCNCc1cncc(-c2cc3c(-c4nc5c(-c6ccsc6)nccc5[nH]4)n[nH]c3cn2)c1`: the Emax at 0.03 µM in assay [4] was 67.7%. For the same compound, the EC50 in assay [1] is 59.3 nM; in assay [2], 2 nM; in assay [6], 30 nM.

For the compound `Fc1ccc(-c2nccc3[nH]c(-c4n[nH]c5ccc(-c6cncc(CN7CCCC7)c6)cc45)cc23)cc1`, the Emax at 0.03 µM in assay [4] is 98.5%. The EC50 is 3620 nM in assay [1], 60 nM in assay [2] and 30 nM in assay [6].

Regarding `CC(C)CC(=O)Nc1cncc(-c2ccc3[nH]nc(-c4cc5c(-c6ccncc6)cncc5[nH]4)c3c2)c1`, the Emax at 0.03 µM in assay [4] stood at 70.2%. The EC50 was 875 nM in assay [1], 4 nM in assay [2] and 30 nM in assay [6].

On to `c1cncc(-c2ccc3[nH]nc(-c4nc5c(-c6cccnc6)cncc5[nH]4)c3n2)c1`, for which the Emax at 0.03 µM in assay [4] turned out to be 83.8%. Further, the values for the EC50 in assay [1], in assay [2] and in assay [6] were more than 10000 nM, 47 nM and 30 nM, respectively.

With `Fc1cccc(-c2cncc3[nH]c(-c4n[nH]c5ncc(-c6cncc(CN7CCCCC7)c6)cc45)cc23)c1`, the Emax at 0.03 µM in assay [4] was 108%. The EC50 amounted to 3120 nM in assay [1], 74 nM in assay [2] and 10 nM in assay [6].

Turning to `O=C(Nc1cncc(-c2ccc3[nH]nc(-c4cc5cnccc5[nH]4)c3c2)c1)C1CCC1`, the Emax at 0.03 µM in assay [4] was found to be 213%. Moreover, the figures for the EC50 in assay [1], in assay [2] and in assay [6] were 75 nM, 2 nM and 10 nM, respectively.

Regarding `O=C(Nc1c[nH]nc1C(=O)Nc1cncc(-c2cccc(F)c2)c1)c1cncc(OC2CCNCC2)c1`, the Emax at 0.03 µM in assay [4] amounted to 89.5%. Besides, the EC50 in assay [1] stood at 1600 nM; in assay [2], 12 nM; in assay [5] it was 339 nM.

Consider `CC(C)(C)CC(=O)Nc1cncc(-c2cc3c(-c4cc5c(-c6ccccc6F)nccc5[nH]4)n[nH]c3cn2)c1`, for which the Emax at 0.03 µM in assay [4] was 54.3%. The EC50 in assay [1] came out at 1030 nM; in assay [2], 50 nM; in assay [6], 30 nM.

As for `CCCC(=O)Nc1cncc(-c2ccc3[nH]nc(-c4nc5c(-c6ccsc6)ccnc5[nH]4)c3c2)c1`, the maximal response (Emax) at 0.03 µM in assay [4] came out at 72.6%. The results for the EC50 in assay [1], in assay [2] and in assay [6] were 7.7 nM, 17 nM and 30 nM, respectively.

For the compound `O=C(Nc1cncc(-c2cnc3[nH]nc(-c4cc5c(-c6ccccc6F)nccc5[nH]4)c3c2)c1)C1CC1`, in assay [4], the Emax at 0.03 µM was found to be 78.1%. For the same compound, the EC50 in assay [1] amounted to 321 nM; in assay [2], 20 nM; in assay [6], 30 nM.

Consider `Cc1cn(-c2nccc3[nH]c(-c4n[nH]c5ccc(-c6cncc(NC(=O)CC(C)C)c6)cc45)nc23)cn1`, for which, in assay [4], the Emax at 0.03 µM amounted to 73.7%. The EC50 in assay [1] is 10.4 nM; in assay [2], 9 nM; in assay [6], 30 nM.

On to `CC(C)Nc1cncc(-c2cnc3[nH]nc(-c4nc5c(-c6cc(F)cc(NCCN(C)C)c6)nccc5[nH]4)c3c2)c1`, for which the Emax at 0.03 µM in assay [4] was found to be 82.9%. For the same compound, the concentration giving a half-maximal response (EC50) was determined as 154 nM in assay [1], 5 nM in assay [2] and 30 nM in assay [6].

Turning to `Nc1cncc(-c2ccc3[nH]nc(-c4nc5c(-c6ccccc6F)ccnc5[nH]4)c3c2)c1`, the Emax at 0.03 µM in assay [4] was 113%. The EC50 in assay [1] stood at 2 nM; in assay [2] it was 5 nM; in assay [6], 30 nM.
